Experimental data: US20260138948A1, “N-SUBSTITUTED INDOLES AS 5-HYDROXYTRYPTAMINE (5-HT) SEROTONIN RECEPTOR AGONISTS AND ANTAGONISTS” (Terran Biosciences Inc., priority 2021, published 2026)

Experiments:
[1] = Metabolic stability in human liver microsomes; format: in vitro ADME; conditions: for half-life at 1 μM / microsomal CLint at 1 μM / CLint scaled at 1 μM: liver microsomes (pooled); for half-life at 1 μM: human liver microsomes 0.5 mg/mL, test compound 1.0 μM, 37° C., NADPH; for microsomal CLint at 1 μM: intrinsic clearance = 0.693/T1/2/mg microsome protein per mL, read-out: CLint(mic); for CLint scaled at 1 μM: human, scaled from CLint(mic) with 45 mg microsomal protein/g liver and 20 g liver/kg
Description: The test compound at 1.0 μM in singlet, or positive controls including Testosterone (CYP3A4 substrate), Propafenone (CYP2D6 substrate) or Diclofenac (CYP2C9 substrate) was incubated with the liver microsomes (Corning, Xenotech, or other credible vendor, pooled from multiple donors) at 0.5 mg/mL, respectively. The mixture was warmed up at 37° C. for 10 minutes and the reactions were initiated by the addition of a NADPH regenerating system (˜1.0 mM). The test compound incubated with the liver microsomes at 37° C. without the NADPH regenerating system served as the negative control reaction.
The reaction samples were removed at multiple time points (such as 0, 5, 15, 30, 45 and 60 minutes) and the sample without NADPH (NCF) was removed at 60 minutes. All the samples were immediately mixed with cold acetonitrile containing internal standard (IS) to stop the reaction.
Samples were analyzed by LC/MS/MS and the disappearance of test compound were assessed base on peak area ratios of analyte/IS (no standard curve). The microsomal intrinsic clearance and T1/2 values were calculated using the following equation: […]
The microsomal intrinsic clearance and T1/2 values were calculated using the following equation: […]
In these experiments the comparator compound was a suitable reference standard. In one embodiment the comparator compound was (R)-1-(5-methoxy-1H-indol-1-yl)-N,N-dimethylpropan-2-amine.

5-HT2A receptor [2] = target: T1, 5-HT2A receptor (Homo sapiens, UniProt P28223); test: Calcium mobilization assay, antagonist format, 5-HT2A; format: cell-based; conditions: @100 nM; agonist challenge at EC80
T1 construct: host or cells: unnamed cell lines
Description: (§1) Protocol—in vitro testing at select 5-hydroxytryptamine (5-HT; serotonin) receptors was conducted.
(§2) • 1. Cell lines were expanded from freezer stocks according to standard procedures. • 2. Cells were seeded in a total volume of 20 μL into black-walled, clear-bottom, Poly-D-lysine coated 384-well microplates and incubated at 37° C. for the appropriate time prior to testing.
(§3) • 1. Assays were performed in 1× Dye Loading Buffer consisting of 1× Dye, 1× Additive A and • 2.5 mM Probenecid in HBSS/20 mM Hepes. Probenicid was prepared fresh. • 2. Cells were loaded with dye prior to testing. Media was aspirated from cells and replaced with 20 μL Dye Loading Buffer. • 3. Cells were incubated for 30-60 minutes at 37° C.
(§4) • 1. For antagonist determination, cells were pre-incubated with sample followed by agonist challenge at the EC80 concentration. • 2. Intermediate dilution of sample stocks was performed to generate 3× sample in assay buffer. • 3. After dye loading, cells were removed from the incubator and 10 μL 3× sample was added. Cells were incubated for 30 minutes at room temperature in the dark to equilibrate plate temperature. Vehicle concentration was 1%. • 4. Compound antagonist activity was measured on a FLIPR Tetra (MDS). Calcium mobilization was monitored for 2 minutes and 10 μL EC80 agonist in HBSS/20 mM Hepes was added to the cells 5 seconds into the assay.
(§5) • 1. Compound activity was analyzed using CBIS data analysis suite (ChemInnovation, CA). • 2. For agonist mode assays, percentage activity is calculated using the following formula: % Activity=100%×(mean RFU of test sample−mean RFU of vehicle control)/(mean MAX RFU control ligand −mean RFU of vehicle control). • 3. For positive allosteric mode assays, percentage modulation was calculated using the following formula: % Modulation=100%×((mean RFU of test sample−mean RFU of EC20 control)/(mean RFU of MAX control ligand −mean RFU of EC20 control)). • 4. For antagonist and negative allosteric modulation mode assays, percentage inhibition is calculated using the following formula: % Inhibition=100%×(1−(mean RFU of test sample−mean RFU of vehicle control)/(mean RFU of EC80 control−mean RFU of vehicle control)).
Compounds were evaluated as 5-HT2A antagonists at 100 nM (one hundred nanomolar), or may be evaluated at a higher concentration. For research comparative purposes, a literature compound—(R)-1-(5-methoxy-1H-indol-1-yl)-N,N-dimethylpropan-2-amine (AAZ-A-154) (Cell 2021, 184, 2779-2792.e18)—was included in the screening assays. Additionally, 5-hydroxytryptamine/serotonin (5-HT) was included in the screening assay as a positive control agonist, and Altanserin HCl was included as a 5-HT2A antagonist positive control.

5-HT2A receptor [3] = target: T1, 5-HT2A receptor; test: Calcium mobilization assay, agonist format, 5-HT2A; format: cell-based; conditions: % activity relative to control ligand, read-out: 5-HT2A agonist efficacy @10 µM
Description: as §1, §2, §3
(§6) • 1. For agonist determination, cells were incubated with sample to induce response. • 2. After dye loading, cells were removed from the incubator and 10 μL HBSS/20 mM Hepes was added. 3× vehicle was included in the buffer when performing agonist dose curves to define the EC80 for subsequent antagonist assays. Cells were incubated for 30 minutes at room temperature in the dark to equilibrate plate temperature. • 3. Intermediate dilution of sample stocks was performed to generate 4× sample in assay buffer. • 4. Compound agonist activity was measured on a FLIPR Tetra (MDS). Calcium mobilization was monitored for 2 minutes and 10 μL 4× sample in HBSS/20 mM Hepes was added to the cells 5 seconds into the assay.
as §5

5-HT2B receptor = target: T2, 5-HT2B receptor (Homo sapiens, UniProt P41595); test: Calcium mobilization assay, agonist format, 5-HT2B; format: cell-based; conditions: % activity relative to control ligand, read-out: 5-HT2B agonist efficacy @5 µM
T2 construct: host or cells: unnamed cell lines
Description: as §1, §2, §3, §6, §5

5-HT2C receptor = target: T3, 5-HT2C receptor (Homo sapiens, UniProt P28335); test: Calcium mobilization assay, antagonist format, 5-HT2C; format: cell-based; conditions: @10 µM; agonist challenge at EC80
T3 construct: host or cells: unnamed cell lines
T3 sequence (P28335 33-458): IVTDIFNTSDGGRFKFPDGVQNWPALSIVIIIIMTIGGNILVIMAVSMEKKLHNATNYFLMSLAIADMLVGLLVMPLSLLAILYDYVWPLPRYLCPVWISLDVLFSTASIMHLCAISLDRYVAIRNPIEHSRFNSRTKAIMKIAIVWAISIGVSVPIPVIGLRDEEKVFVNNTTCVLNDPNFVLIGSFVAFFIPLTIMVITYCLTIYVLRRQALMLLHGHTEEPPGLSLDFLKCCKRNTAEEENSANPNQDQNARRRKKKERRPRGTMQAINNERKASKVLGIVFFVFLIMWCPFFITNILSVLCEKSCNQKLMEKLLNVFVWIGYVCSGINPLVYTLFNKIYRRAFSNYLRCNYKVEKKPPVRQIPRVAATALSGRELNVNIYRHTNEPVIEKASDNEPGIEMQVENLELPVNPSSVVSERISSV
Description: as §1, §2, §3, §4, §5
[…] For research comparative purposes, a literature compound—(R)-1-(5-methoxy-1H-indol-1-yl)-N,N-dimethylpropan-2-amine (AAZ-A-154) (Cell 2021, 184, 2779-2792.e18)—was included in the screening assays. Additionally, 5-hydroxytryptamine/serotonin (5-HT) was included in the screening assay as a positive control agonist, and SB242084 was used in the screening assay as a literature 5-HT2C antagonist positive control. […] Compounds 2, 3 and 93 each achieved greater than 75% antagonism of the 5-HT2C receptor, with compounds 3 and 93 achieving approximately 98% and 97% antagonism, respectively.

5HT2A sensor = conditions: general statement on known hallucinogens and non-hallucinogenic congeners; cited from earlier work
C57BL/6J mice = test: Head-twitch response (HTR) in mice; format: in vivo, mouse; conditions: 10 mg/kg ip, male C57BL/6J mice, 40 min post-dose; FIGS. 2 and 3
Description: Head-Twitch Response (HTR). The head-twitch response assay is performed as is known to those of skill in the art using both male and female C57BL/6J mice (3 per treatment). The mice are obtained and are approximately 8 weeks old at the time of the experiments. Compounds are administered via intraperitoneal injection (5 mL/kg) using 0.9% saline as the vehicle. As a positive control, 5-MeO-DMT fumarate (2:1 amine/acid) was utilized. Behavior was videotaped, later scored by two blinded observers, and the results were averaged (Pearson correlation coefficient=0.93).
24 Male C57BL/6J mice (approximately 25 g) were group housed in a stock room. Animals were maintained under a 12 h light/dark cycle, at 23° C. with humidity controlled according to Home Office regulations.
Compounds 1, 2, 4, 151, 93, AAZ literature compound and 5-MeO-DMT (all compounds supplied as free bases) were each formulated in DMSO:saline [10:90] at a concentration of 2 mg/mL to give a dose of 10 mg/kg when administered ip in a 5 mL/kg dosing volume. […]
At T=0 h, groups of 3 mice were dosed intraperitoneally with either Vehicle, Compound 1, Compound 2, Compound 4, Compound 151, Compound 93, AAZ literature compound, or 5-MeO-DMT each at 10 mg/kg. Following dosing, mice were replaced into the observation cages and head twitch behavior was monitored for 40 min after agonist dosing.

T2 sequence (P41595 whole entry): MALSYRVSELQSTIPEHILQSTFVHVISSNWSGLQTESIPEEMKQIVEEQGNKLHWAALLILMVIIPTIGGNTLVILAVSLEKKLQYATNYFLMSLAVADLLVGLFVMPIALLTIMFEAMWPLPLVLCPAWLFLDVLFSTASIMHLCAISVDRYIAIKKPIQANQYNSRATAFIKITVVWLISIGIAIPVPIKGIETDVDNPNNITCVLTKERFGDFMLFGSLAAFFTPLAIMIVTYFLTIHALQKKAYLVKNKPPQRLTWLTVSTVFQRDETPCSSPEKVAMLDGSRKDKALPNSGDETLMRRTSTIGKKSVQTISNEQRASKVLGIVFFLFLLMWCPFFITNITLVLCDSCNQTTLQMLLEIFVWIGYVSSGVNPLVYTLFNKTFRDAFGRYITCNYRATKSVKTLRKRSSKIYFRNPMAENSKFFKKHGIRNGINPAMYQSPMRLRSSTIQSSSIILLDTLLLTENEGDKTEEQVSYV
T1 sequence (P28223 whole entry): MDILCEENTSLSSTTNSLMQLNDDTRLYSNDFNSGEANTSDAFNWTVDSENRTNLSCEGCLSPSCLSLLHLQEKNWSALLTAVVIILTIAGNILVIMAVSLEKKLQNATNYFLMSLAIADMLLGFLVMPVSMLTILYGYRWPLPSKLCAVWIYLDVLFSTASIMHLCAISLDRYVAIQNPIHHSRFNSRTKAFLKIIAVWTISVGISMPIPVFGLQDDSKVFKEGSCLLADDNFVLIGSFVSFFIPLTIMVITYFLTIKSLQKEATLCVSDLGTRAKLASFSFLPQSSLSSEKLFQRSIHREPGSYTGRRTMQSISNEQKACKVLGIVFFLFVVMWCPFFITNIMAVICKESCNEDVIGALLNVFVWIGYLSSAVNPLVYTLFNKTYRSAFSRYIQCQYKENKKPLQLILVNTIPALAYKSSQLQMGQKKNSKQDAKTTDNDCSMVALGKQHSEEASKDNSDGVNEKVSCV

COc1ccc2c(ccn2C[C@@H](C)N(C)C)c1 [AAZ-A-154, (R)-1-(5-methoxy-1H-indol-1-yl)-N,N-dimethylpropan-2-amine, reference compound] gave a half-life at 1 μM [1] of 85 min, a microsomal CLint at 1 μM ([1]; human liver microsomes) of 16.4 µL/min/mg and a CLint scaled at 1 μM [1] of 14.8 mL/min/kg. It also gave an inhibition at 0.1 µM (5-HT2A receptor [2]) of 3.2%, an activation at 10 µM (5-HT2A receptor [3]) of 1% and an activation at 5 µM (5-HT2B receptor) of -2.9%. For the same compound, the inhibition at 10 µM (5-HT2C receptor) was 35%.

C[C@H](Cn1ccc2cc(S(=O)(=O)C3CC3)ccc21)N(C)C [Compound 4, (2R)-1-(5-cyclopropylsulfonylindol-1-yl)-N,N-dimethyl-propan-2-amine] showed an inhibition at 0.1 µM (5-HT2A receptor [2]) of -9.1%, an activation at 10 µM (5-HT2A receptor [3]) of -1.5% and an activation at 5 µM (5-HT2B receptor) of -0.6%. The inhibition at 10 µM (5-HT2C receptor) was 6.2%.

In the case of [2H]C([2H])([2H])[C@@]([2H])(N(C)C)C([2H])([2H])n1ccc2cc(OC)ccc21 [Compound 5, (2R)-1,1,1,2,3,3-hexadeuterio-3-(5-methoxyindol-1-yl)-N,N-dimethyl-propan-2-amine], the “difference in half-life and intrinsic clearance compared with reference compound (R)-1-(5-methoxy-1H-indol-1-yl)-N,N-dimethylpropan-2-amine” value ([1]; human liver microsomes, comment on Table 2) was “significant and beneficial differences in half-life and intrinsic clearance”, the half-life at 1 μM [1] was 95.4 min and the microsomal CLint at 1 μM ([1]; human liver microsomes) was 15 µL/min/mg. For the same compound, the CLint scaled at 1 μM [1] was 13.5 mL/min/kg, the inhibition at 0.1 µM (5-HT2A receptor [2]) was -2.7% and the activation at 10 µM (5-HT2A receptor [3]) was 2%. The activation at 5 µM (5-HT2B receptor) was 3% and the inhibition at 10 µM (5-HT2C receptor) was 38.1%.

In the case of COc1ccc2[nH]cc(CCN(C)C)c2c1 [Compound 5-MeO-DMT], the “activation of the 5HT2A sensor assay in agonist mode” value (5HT2A sensor) is listed as “activate the 5HT2A sensor assay in agonist mode” and the “head-twitch response compared to placebo” value (C57BL/6J mice) is listed as “produced significant increases in head-twitch”.
